Nc1ccc(S(=O)(=O)Nc2ncccn2)cc1
solubility (mole fraction)
Details	in acetone	in chloroform	in ethanol	in isopropanol	in methanol	in n-propanol
294.15 K	5.96e-05	5.47e-06	3.8e-05	6.53e-05	0.000265	9.66e-05
298.15 K	7.34e-05	9.26e-06	4.8e-05	8.18e-05	0.000283	0.000124
303.15 K	9.17e-05	1.54e-05	6.01e-05	0.000103	0.000311	0.000164
308.15 K	0.000106	2.15e-05	7e-05	0.000123	0.000343	0.000208
313.15 K	0.000115	2.57e-05	7.56e-05	0.000134	0.000377	0.000245
318.15 K	0.00012	2.71e-05	7.68e-05	0.000143	0.000409	0.000279

Reference: BigSolDB 2.1
